Reference: patent publication US6509318B1, “TGF-B inhibitors and methods” (The Regents of the University of California, priority 2000, dated 2003)
Non-standard residues stand in square brackets, D forms with d. No end group written: not given here.

What was measured:
[1] = system: mink lung epithelium MV-1-Lu cells; assay: DNA synthesis (3H-thymidine incorporation) in MV-1-Lu cells, additions alone; assay type: cell-based; conditions: for 3H-Thymidine Incorporation 10^3 d.p.m. ± S.D. / (+/−) % change over control when CITA is present: no TGF β-1; for 3H-Thymidine Incorporation 10^3 d.p.m. ± S.D.: MV-1-Lu cells, 24 h; for (+/−) % change over control when CITA is present: vs control (no additions); for decrease of DNA synthesis against the control: CITA alone, all concentrations examined (1, 10, 100 nM)
Source text: (§1) Inhibition of TGF β-1 Activity by CITAs: We have used a standardized in vitro assay for TGF β-1 as a test for the biological activity of CITAs. Our test is based on inhibiting the effect of TGF β-1 on a test cell proliferation system. In this assay, mink lung epithelium MV-1-Lu cells are exposed to TGF β-1. […] The decrease in DNA synthesis can be monitored by measuring the incorporation of labeled precursors in DNA. The incorporation of ^3H-thymidine in DNA in MV-1-Lu cells are used as a measure of cell proliferation. […] These concentrations of TGF β-1 were based on the amounts of TGF β-1 found in normal serum and in serum from patients with peritonitis, an inflammatory disease. The normal amount of TGF β-1 in human serum is approximately 2 nM (39 pG/ml). In patients with peritonitis, the amount increases to nearly 10 nM (169-216 pG/ml). The incorporation of ^3H-thymidine in the absence of TGF β-1 served as the control. To test the anti-TGF β-1 activity of CITAs, the cells were exposed to 1 nM, 10 nM, and 100 nM CITA-I, CITA-II, and CITA-III in the absence and in the presence of 5.0 nM and 10.0 nM TGF β-1.
(§2) Details of Experimental Procedures: 10^4 MV-1-Lu were plated in each well of a 12 well plate in 2.0 ml minimum essential medium containing non-essential amino acids (MEM) and 10% fetal bovine serum. After 24 hours, the medium was placed with serum free MEM and the cells were further cultured for two hours before the medium was placed with serum free MEM containing the test additives. After exposure to the test medium for 24 hours, the cells were pulse labeled for two hours with 0.5 μCi (methyl-^3H)-thymidine, (specific activity 60 Ci/mmol). After pulse labeling, the radioactive medium was removed, and the cells were washed 1× with 10% trichloracetic acid (TCA), 2× with 5% TCA, then 2× with phosphate buffered saline containing 50 μg/ml non-radioactive thymidine. The wash solutions were monitored to establish that no further unbound radioactive thymidine remained. The washed cell layers were dissolved in 1 ml 0.1 N NaOH containing 1% sodium dodecyl sulfate. The radioactivity in the solution was measured in a scintillation counter and expressed as disintegrations per minute (d.p.m.). Each test was carried out in quadruplicate, and the data presented as mean±standard deviation.

[2] = system: TGF β-1; assay: Inhibition of TGF β-1 activity by CITAs: reversal of TGF β-1 inhibition of DNA synthesis in MV-1-Lu cells; assay type: cell-based; conditions: for DNA synthesis restored, relative to the level seen with TGF β-1: MV-1-Lu cells exposed to 5 nM TGF β-1, all concentrations of CITAs; for reversal of the inhibition of DNA synthesis caused by TGF β-1 / 3H-Thymidine Incorporation 10^3 d.p.m. ± S.D.: MV-1-Lu cells; for reversal of the inhibition of DNA synthesis caused by TGF β-1: TGF β-1 5 nM and 10 nM; for 3H-Thymidine Incorporation 10^3 d.p.m. ± S.D.: 24 h; for (+/−) % change over control when CITA is present: vs control (no additions)
Source text: as §1, §2

[3] = TGF β-1 5 nM + CITA 1 nM, relative to TGF β-1 5 nM alone
[4] = TGF β-1 5 nM + CITA 10 nM, relative to TGF β-1 5 nM alone
[5] = TGF β-1 5 nM + CITA 100 nM, relative to TGF β-1 5 nM alone
[6] = TGF β-1 10 nM + CITA 1 nM, relative to TGF β-1 10 nM alone
[7] = TGF β-1 10 nM + CITA 10 nM, relative to TGF β-1 10 nM alone
[8] = TGF β-1 10 nM + CITA 100 nM, relative to TGF β-1 10 nM alone

Substance | 3H-Thymidine Incorporation 10^3 d.p.m. ± S.D. ([1]; CITA 1 nM alone) | (+/−) % change over control when CITA is present ([1]; CITA 1 nM alone) | 3H-Thymidine Incorporation 10^3 d.p.m. ± S.D. ([1]; CITA 10 nM alone) | (+/−) % change over control when CITA is present ([1]; CITA 10 nM alone) | 3H-Thymidine Incorporation 10^3 d.p.m. ± S.D. ([1]; CITA 100 nM alone) | (+/−) % change over control when CITA is present ([1]; CITA 100 nM alone) | decrease of DNA synthesis against the control [1] | DNA synthesis restored, relative to the level seen with TGF β-1 [2] | reversal of the inhibition of DNA synthesis caused by TGF β-1 [2] | % Increase over TGF β-1. TGF β-1 + CITA/TGF β-1 × 100 [2, 3] | 3H-Thymidine Incorporation 10^3 d.p.m. ± S.D. ([2]; TGF β-1 5 nM + CITA 1 nM) | (+/−) % change over control when CITA is present ([2]; TGF β-1 5 nM + CITA 1 nM) | % Increase over TGF β-1. TGF β-1 + CITA/TGF β-1 × 100 [2, 4] | 3H-Thymidine Incorporation 10^3 d.p.m. ± S.D. ([2]; TGF β-1 5 nM + CITA 10 nM) | (+/−) % change over control when CITA is present ([2]; TGF β-1 5 nM + CITA 10 nM) | % Increase over TGF β-1. TGF β-1 + CITA/TGF β-1 × 100 [2, 5] | 3H-Thymidine Incorporation 10^3 d.p.m. ± S.D. ([2]; TGF β-1 5 nM + CITA 100 nM) | (+/−) % change over control when CITA is present ([2]; TGF β-1 5 nM + CITA 100 nM) | % Increase over TGF β-1. TGF β-1 + CITA/TGF β-1 × 100 [2, 6] | 3H-Thymidine Incorporation 10^3 d.p.m. ± S.D. ([2]; TGF β-1 10 nM + CITA 1 nM) | further results
Phe-Ile-Ala-Pro-D-Glu-Ala (FIAP[dE]A) [CITA-II] | 45.10 ± 1.27 10^3 d.p.m. | −22% | 42.03 ± 1.11 10^3 d.p.m. | −27% | 43.08 ± 1.23 10^3 d.p.m. | −25% | approximately 20% | 2 × | markedly reversed the inhibition of DNA synthesis | 184% | 31.04 ± 1.07 10^3 d.p.m. | −29% | 169% | 27.75 ± 1.50 10^3 d.p.m. | −45% | 207% | 34.00 ± 0.86 10^3 d.p.m. | −49% | 970% | 18.51 ± 1.23 10^3 d.p.m. | (+/−) % change over control when CITA is present ([2]; TGF β-1 10 nM + CITA 1 nM): −63%; % Increase over TGF β-1. TGF β-1 + CITA/TGF β-1 × 100 [2, 7]: 1084%; 3H-Thymidine Incorporation 10^3 d.p.m. ± S.D. ([2]; TGF β-1 10 nM + CITA 10 nM): 20.70 ± 2.63 10^3 d.p.m.; (+/−) % change over control when CITA is present ([2]; TGF β-1 10 nM + CITA 10 nM): −55%; % Increase over TGF β-1. TGF β-1 + CITA/TGF β-1 × 100 [2, 8]: 981%; 3H-Thymidine Incorporation 10^3 d.p.m. ± S.D. ([2]; TGF β-1 10 nM + CITA 100 nM): 18.73 ± 1.67 10^3 d.p.m.; (+/−) % change over control when CITA is present ([2]; TGF β-1 10 nM + CITA 100 nM): −70%
Leu-Phe-Ala-Pro-D-Glu-Ala (LFAP[dE]A) [CITA-III] | 44.67 ± 2.26 10^3 d.p.m. | −23% | 47.19 ± 3.00 10^3 d.p.m. | −18% | 44.36 ± 1.76 10^3 d.p.m. | −23% | approximately 20% | 2 × | markedly reversed the inhibition of DNA synthesis | 207% | 34.00 ± 0.86 10^3 d.p.m. | −41% | 207% | 34.03 ± 1.11 10^3 d.p.m. | −41% | 184% | 30.23 ± 1.69 10^3 d.p.m. | −48% | 1275% | 24.36 ± 1.14 10^3 d.p.m. | (+/−) % change over control when CITA is present ([2]; TGF β-1 10 nM + CITA 1 nM): −58%; % Increase over TGF β-1. TGF β-1 + CITA/TGF β-1 × 100 [2, 7]: 997%; 3H-Thymidine Incorporation 10^3 d.p.m. ± S.D. ([2]; TGF β-1 10 nM + CITA 10 nM): 19.04 ± 1.47 10^3 d.p.m.; (+/−) % change over control when CITA is present ([2]; TGF β-1 10 nM + CITA 10 nM): −67%; % Increase over TGF β-1. TGF β-1 + CITA/TGF β-1 × 100 [2, 8]: 907%; 3H-Thymidine Incorporation 10^3 d.p.m. ± S.D. ([2]; TGF β-1 10 nM + CITA 100 nM): 17.32 ± 0.27 10^3 d.p.m.; (+/−) % change over control when CITA is present ([2]; TGF β-1 10 nM + CITA 100 nM): −70%
